Data: article PMC9218946, “Identification of a Subtype-Selective Allosteric Inhibitor of GluN1/GluN3 NMDA Receptors” (Frontiers in Pharmacology, 2022)

Assays:
GluN1/GluN3A receptors = GluN1/GluN3A receptors (UniProt Q05586+Q9R1M7); experiment: Whole-cell patch-clamp recording on GluN1/GluN3A Flp-in T-REx 293 stable cell lines; type: cell-based, human GluN1-1a, rat GluN3A; set-up: expressed in transfected cells
Method: (§1) To establish GluN1/GluN3A stable cell lines, the human GluN1-1a (GenBank: NP_015566.1) and the rat GluN3A (GenBank: NP_612555.1) genes were subcloned into the pcDNA5-FRT-To and pcDNA3.1 vectors, respectively. An EGFP tag was added to the C-terminus of GluN1 or GluN3A using a T2A linker for identification of transfected cells during transient transfection. Point mutations were introduced by site-directed mutagenesis using PrimeSTAR (Takara). The human GluN2A (GenBank: NP_000824.1) gene was subcloned into the pcDNA3.1 vector. The chimeras GluN3A^670-673 MWPL/LEPF and GluN2A^550-553 LEPF/MWPL were generated using In-Fusion HD Cloning kits (Takara). All constructs were confirmed by DNA sequencing (Beijing Genomics Institute).
(§2) The Flp-in T-Rex 293 cell lines (Invitrogen), stably expressing GluN1/GluN3A were grown in DMEM basal medium (Gibco) supplemented with 10% fetal bovine serum (FBS, Invitrogen), 15 μg/ml blasticidin S (Invitrogen), 50 μg/ml hygromycin B (Invitrogen) and 500 μg/ml G418 (Gibco). Expression in cell lines was induced with 1 μg/ml doxycycline (Invitrogen) 24–28 h prior to the experiments. Chinese hamster ovary (CHO) cells were grown in DMEM-F12 basal medium (Gibco) supplemented with 10% FBS. In the study on the action sites of WZB117, all whole-cell patch-clamp recordings were performed on CHO cells. The transfections were carried out using Lipofectamine 3000 transfection reagent (Thermo Fisher) according to the manufacturer’s instructions. All cells mentioned above were cultured in a 5% CO2 incubator at 37°C and passaged every other day at a ratio of 1:3.
Whole-cell patch-clamp recordings were performed at room temperature (22–25°C) using an EPC-10 amplifier and Patch Master Software (HEKA). Pipettes were pulled from borosilicate glass capillaries (World Precision Instruments), and the resistances were 3–5 MΩ when filled with the intracellular solution. The extracellular solution contained (in mM): 140 NaCl, 2.8 KCl, 1 CaCl2, 10 HEPES and 20 sucrose (290–300 mOsm), pH adjusted to 7.3 using NaOH. The pipette solution contained (in mM): 115 CsF, 10 CsCl, 10 HEPES and 10 BAPTA (280–290 mOsm), pH adjusted to 7.2 using CsOH ([Grand et al., 2018]). When recording in hippocampal neurons, the extracellular solution contained (in mM): 140 NaCl, 5 KCl, 1 CaCl2, 1.25 MgCl2, 10 glucose, and 10 HEPES, and the pH was adjusted to 7.4 using NaOH, and the pipette solution contained (in mM): 140 KCl, 1 MgCl2, 10 EGTA, and 10 HEPES, and the pH was adjusted to 7.2 using KOH ([Xie et al., 2020]). Drug-containing solutions were applied through an RSC-200 Rapid Solution Changer with a 9-tube head (BioLogic Co., France), in which the cell is positioned close to the output of a capillary. The solution, containing either one drug or a combination of different drugs, to be assayed flows out of the capillary at a moderate flow rate by gravity. The lifted cell, exposed to this stream, rapidly equilibrates in the perfusion solution. Whole-cell patch-clamp recordings in heterologous cells and hippocampal neurons were performed at a holding potential of −60 mV. Currents were sampled at 10 kHz and low pass filtered at 2.9 kHz. To record the native GluN1/GluN3 receptor-mediated currents, the extracellular solution was supplemented with 10 μM bicuculline (Sigma-Aldrich), 2 μM NBQX (Topscience), 100 μM D-APV (MCE), and 50 μM strychnine (UHN Shanghai) to block γ-aminobutyric acid type A (GABAA), α-amino-3-hydroxy-5-methylisoxazole-4-propionate (AMPA), GluN1/GluN2 NMDA and glycine receptors, respectively. To record the native GluN2-NMDARs-mediated currents, 10 μM bicuculline and 2 μM NBQX were added into the extracellular solution to block GABAA receptors and AMPA receptors, respectively ([Grand et al., 2018]; [Otsu et al., 2019]; [Zhu et al., 2020]).
Patch-clamp data were processed using Clampfit 10.4 (Molecular Device, Sunnyvale, CA, United States) and analyzed with GraphPad Prism 5.0 (GraphPad Software, San Diego, CA, United States). […]

[1] = molecular target: T1, chimera GluN3A^670-673 MWPL/LEPF (UniProt Q05586+Q9R1M7, L673F/M670L/W671E); experiment: Whole-cell patch-clamp on transiently transfected CHO cells, GluN3A chimera; type: cell-based
T1 construct: expressed in transfected cells; host or cells: CHO, transient
T1 sequence (Q9R1M7 24-1135 M670L/W671E/L673F, other chains not shown): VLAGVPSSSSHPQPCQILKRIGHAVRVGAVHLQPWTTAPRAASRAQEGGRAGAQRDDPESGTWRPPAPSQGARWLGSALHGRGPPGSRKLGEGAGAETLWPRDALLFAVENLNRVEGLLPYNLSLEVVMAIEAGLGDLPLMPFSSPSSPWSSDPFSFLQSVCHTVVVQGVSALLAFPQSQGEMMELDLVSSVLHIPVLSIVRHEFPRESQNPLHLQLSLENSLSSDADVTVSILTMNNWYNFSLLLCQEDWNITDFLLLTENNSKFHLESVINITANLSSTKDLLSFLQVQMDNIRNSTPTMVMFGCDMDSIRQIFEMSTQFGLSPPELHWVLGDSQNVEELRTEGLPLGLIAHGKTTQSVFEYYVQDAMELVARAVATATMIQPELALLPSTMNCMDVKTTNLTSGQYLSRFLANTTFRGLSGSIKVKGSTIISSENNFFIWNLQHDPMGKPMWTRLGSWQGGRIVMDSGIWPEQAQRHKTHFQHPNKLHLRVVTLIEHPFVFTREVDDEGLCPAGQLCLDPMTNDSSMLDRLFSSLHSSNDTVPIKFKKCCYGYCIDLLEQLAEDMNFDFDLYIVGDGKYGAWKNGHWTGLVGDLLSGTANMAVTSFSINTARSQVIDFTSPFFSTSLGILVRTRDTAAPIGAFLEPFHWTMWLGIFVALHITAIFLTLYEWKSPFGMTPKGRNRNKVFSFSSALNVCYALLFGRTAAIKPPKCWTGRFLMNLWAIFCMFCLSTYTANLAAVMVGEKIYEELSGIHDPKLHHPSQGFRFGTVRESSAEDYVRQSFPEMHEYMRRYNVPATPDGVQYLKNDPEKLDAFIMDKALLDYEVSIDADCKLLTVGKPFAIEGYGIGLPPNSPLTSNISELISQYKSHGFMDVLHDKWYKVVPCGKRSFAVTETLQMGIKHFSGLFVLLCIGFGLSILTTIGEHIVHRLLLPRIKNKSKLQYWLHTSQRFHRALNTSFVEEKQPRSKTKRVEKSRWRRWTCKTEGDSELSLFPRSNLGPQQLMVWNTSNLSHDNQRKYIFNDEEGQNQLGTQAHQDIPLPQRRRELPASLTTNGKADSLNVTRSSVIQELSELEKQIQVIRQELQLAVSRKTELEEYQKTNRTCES
Method: as §1
as §2, with “The transfections were carried out using Lipofectamine 3000 transfection reagent (Thermo Fisher) according to the manufacturer’s instructions. All cells mentioned above were cultured in a 5% CO2 incubator at 37°C and passaged every other day at a ratio of 1:3.” left out

[2] = tested on: GluN1/GluN3A with mutations in the pre-M1 region of the GluN1 subunit; experiment: Whole-cell patch-clamp on transiently transfected CHO cells, GluN1 pre-M1 alanine mutants; type: cell-based
Method: as §1
as §2, with “The transfections were carried out using Lipofectamine 3000 transfection reagent (Thermo Fisher) according to the manufacturer’s instructions. All cells mentioned above were cultured in a 5% CO2 incubator at 37°C and passaged every other day at a ratio of 1:3.” left out

GluN1/GluN3A receptors, sequence (Q9R1M7 24-1135, other chains not shown): as the sequence (Q9R1M7 24-1135 M670L/W671E/L673F, other chains not shown) above, with L647M, E648W, F650L counted along it

Molecule O=C(Oc1cccc(F)c1OC(=O)c1cccc(O)c1)c1cccc(O)c1 [WZB117, 3-fluoro-1,2-phenylene bis(3-hydroxybenzoate)] has an IC50 (GluN1/GluN3A receptors; 10 μM glycine) of 1080 ± 310 nM, an IC50 (GluN1/GluN3A receptors; 100 μM glycine, pH 7.3, holding potential −60 mV) of 1150 ± 340 nM and a remaining activity at 3 µM (GluN1/GluN3A receptors; Flp-In-T-REx-293, read-out: I drug/I control) of 8 ± 2%. For the same molecule, the inhibition on chimera [1] was “greatly reduced” and the “influence of mutations on activity” value [2] was “none of the mutations in the pre-M1 region of the GluN1 subunit showed a detectable influence”.
